Measured values reported in the PolyMetriX glass transition set.
± gives the standard deviation of the reports.

Row | glass transition temperature [°C] | Compound
1 | 77.00 | *CCCCCOC(=O)OCCCCCN1C(=O)c2ccc(C(=O)c3ccc4c(c3)C(=O)N(*)C4=O)cc2C1=O (repeat unit)
2 | 113.00 | *CCCCCNC(=O)C(OC)C(OC)C(=O)N* (repeat unit)
3 | 94.00 | *CCCCCCCCCCNC(=O)c1ccc(C(=O)N*)c(Oc2ccccc2)c1 (repeat unit)
4 | 278.50 | *Oc1ccc(S(=O)(=O)c2ccc(Oc3ccc(C4(c5ccc(*)cc5)c5ccccc5-c5ccccc54)cc3)cc2)cc1 (repeat unit)
5 | -22.00 | *CC(*)C(=O)OCC(F)(F)C(F)C(F)(F)F (repeat unit)
6 | 237.00 | *c1cccc(N2C(=O)C(=O)N(c3ccc(Cc4ccc(N5C(=O)C(=O)N(*)C5=O)cc4)cc3)C2=O)n1 (repeat unit)
7 | 79.00 | *CC(*)(C)C(=O)OCCCCCCOc1ccc(/N=N/c2ccc(OCCCC)cc2)cc1 (repeat unit)
8 | 395.00 | *Nc1ccc(-c2ccc(NC(=O)c3cccc(C(*)=O)c3)c(S)c2)cc1S (repeat unit)
9 | 2.00 | *Oc1ccc(CC(NC(=O)CCc2ccc(OC(=O)CCCCCCCCC(*)=O)cc2)C(=O)OCCOCCOCC)cc1 (repeat unit)
10 | 259.00 | *C(=O)Nc1ccc(-c2ccc(NC(=O)c3ccc4c(c3)C(=O)N(c3c(C)cc(C)c(N5C(=O)c6ccc(*)cc6C5=O)c3C)C4=O)cc2C)c(C)c1 (repeat unit)
11 | 115.00 | *CC(*)(C)C(=O)OCCOc1ccc(-c2ccc(-c3ccc(C#N)cc3)cc2)cc1 (repeat unit)
12 | 64 ± 1.2 | *CCOC(=O)c1ccc(C(=O)O*)c2ccccc12 (repeat unit) [Poly(ethylene- 1 ,4-naphthalenedicarboxylate) ]
13 | 87.10 | *CC(O)CN(CCO)CC(O)COc1ccc(C(C)(C)c2ccc(O*)cc2)cc1 (repeat unit)
14 | 165.00 | *c1ccc2c(c1)C(=O)N(c1cc(OCCCCCCCCCCCC)cc(N3C(=O)c4ccc(C(*)(C(F)(F)F)C(F)(F)F)cc4C3=O)c1)C2=O (repeat unit)
15 | 265.00 | *c1ccc(Oc2ccc(Oc3ccc(N4C(=O)c5ccc(-c6ccc7c(c6)C(=O)N(*)C7=O)cc5C4=O)cc3)c(C)c2)cc1 (repeat unit)
16 | 79.50 | *CCOCCOCCOc1ccc(/C=C/c2cc(OC)c(/C=C/c3ccc(O*)c4ccccc34)cc2OC)c2ccccc12 (repeat unit)
17 | 354.50 | *c1ccc(-c2nc3ccc(-c4ccc5nc(*)c(-c6ccccc6)nc5c4)cc3nc2-c2ccccc2)cc1 (repeat unit)
18 | 57.00 | *O[Si](*)(C)CCCOc1ccc(C(=O)Oc2ccc(C#N)cc2)cc1 (repeat unit)
19 | 237.50 ± 15 | *c1ccc(Oc2ccc(C(C)(C)c3ccc(Oc4ccc(N5C(=O)c6ccc(-c7ccc8c(c7)C(=O)N(*)C8=O)cc6C5=O)cc4)cc3)cc2)cc1 (repeat unit)

Row | glass transition temperature [°C] | Compound
20 | 76.00 | *Oc1ccc(CC(NC(=O)CCc2ccc(OC(=O)CCCC(*)=O)cc2)C(=O)OC)cc1 (repeat unit)
21 | 346.00 | *c1ccc(-c2ccc(N3C(=O)c4ccc(-c5cccc6c5C(=O)N(*)C6=O)cc4C3=O)cc2C(F)(F)F)c(C(F)(F)F)c1 (repeat unit)
22 | 80.00 | *NC1CCC(CC(C)(C)NC(=O)CCCCC(*)=O)CC1 (repeat unit)
23 | 221.00 | *c1cccc(Oc2cccc(Oc3cccc(-n4c(=O)c5cc6c(=O)n(*)c(=O)c6cc5c4=O)c3)c2)c1 (repeat unit)
24 | 117.00 | *c1ccc(Oc2ccc(-c3csc(/N=C/c4ccc(OCCCCCCOc5ccc(/C=N/c6nc(*)cs6)cc5)cc4)n3)cc2)cc1 (repeat unit)
25 | 31.90 | *CCN(CCOC(=O)Nc1ccc(C)c(NC(=O)O*)c1)c1ccccc1 (repeat unit)
26 | 72.00 | *CCCCCCCCCOC(=O)Nc1ccc(Cc2ccc(NC(=O)O*)cc2)cc1 (repeat unit)
27 | 269.00 | *c1ccc(Nc2ccc(C3(c4ccc(Nc5ccc(S(*)(=O)=O)cc5)c(C)c4)c4ccccc4-c4ccccc43)cc2C)cc1 (repeat unit)
28 | 146.00 | *Oc1ccc(OC(=O)c2ccc(-c3ccc(C(*)=O)cc3)cc2-c2ccccc2)cc1C(C)(C)c1ccccc1 (repeat unit)
29 | 157.00 | */C=C/c1ccc(-c2nnc(-c3ccc(/C=C/c4ccc5c(c4)c4cc(-c6ccc7c(c6)c6cc(*)ccc6n7CCCCCCCC)ccc4n5CCCCCCCC)cc3)n2-c2ccccc2)cc1 (repeat unit)
30 | 125.00 | *CCC(C)C(C)CCNC(=O)c1cccc(C(=O)N*)c1 (repeat unit)
31 | 127.00 | *CCCCCCOc1ccc(-c2cc(-c3ccccc3)c(-c3ccc(NC(=O)c4ccc(C(=O)Nc5ccc(-c6c(-c7ccccc7)cc(-c7ccc(O*)cc7)cc6-c6ccccc6)cc5)cc4)cc3)c(-c3ccccc3)c2)cc1 (repeat unit)
32 | 42.00 | *CCCCCCCCCNC(=O)CCCCCCCCCCCCCCCCCCC(=O)N* (repeat unit)
33 | 75.00 | *CC1CCCC(COC(=O)c2ccc(C(=O)O*)cc2)C1 (repeat unit)
34 | 24.90 | *CCCCOc1ccc(CCc2ccc(O*)cc2C)cc1 (repeat unit)
35 | 8.00 | *CCOC(=O)CCCCC(=O)OCCOC(=O)c1ccc(C(=O)O*)cc1 (repeat unit)
36 | 260.00 | *c1ccc(Oc2ccc(C(=O)c3ccc(Oc4ccc(-c5c6c(c(*)c7ccccc57)C(=O)N(c5ccccc5C(F)(F)F)C6=O)cc4)cc3)cc2)cc1 (repeat unit)
37 | 130.00 | *CC(O)COc1c(C)cc(C(C)(C)c2cc(C)c(O*)c(C)c2)cc1C (repeat unit)
38 | 16.00 | *O[Si](*)(C)CCCCOc1ccc(C(=O)Oc2ccc(C#N)cc2)cc1 (repeat unit)

Row | glass transition temperature [°C] | Compound
39 | 45.00 | *Oc1ccccc1C(=O)OC(=O)c1ccccc1OC(=O)C(C)C(C)C(*)=O (repeat unit)
40 | 113.00 | *C(=O)OC1CC2CC(OC(=O)N3CCN(*)CC3)CC(C1)O2 (repeat unit)
41 | 135.00 | *CC(O)COc1c(Cl)cc(C(C)(C)c2cc(Cl)c(O*)c(Cl)c2)cc1Cl (repeat unit)
42 | 240.00 | *c1ccc(N2C(=O)c3ccc(C(=O)c4ccc5c(c4)C(=O)N(c4ccc(-c6nc7cc(S(=O)(=O)c8ccc9nc(-c%10ccccc%10)c(*)nc9c8)ccc7nc6-c6ccccc6)cc4)C5=O)cc3C2=O)cc1 (repeat unit)
43 | 84.00 | *CC(CO*)(CS(=O)(=O)CC)CS(=O)(=O)CC (repeat unit)
44 | 196.50 | *Nc1ccc(NC(=O)c2ccc(NC(=O)CCCCCCCCCCC(=O)Nc3ccc(C(*)=O)cc3)cc2)cc1C(=O)OCCCCCCCCCCCCCCCCCC (repeat unit)
45 | 190.00 | *CCCN1C(=O)c2ccc(C(c3ccc4c(c3)C(=O)N(*)C4=O)(C(F)(F)F)C(F)(F)F)cc2C1=O (repeat unit)
46 | 276.00 | *Oc1ccc(NC(=O)c2ccc3cc(C(=O)Nc4ccc(Oc5ccc(C6(c7ccc(*)cc7)CC7CCC6C7)cc5)cc4)ccc3c2)cc1 (repeat unit)
47 | 254.00 | *Nc1cc(NC(=O)c2ccc(-c3ccc(C(*)=O)cc3)cc2)cc(C(=O)OCCOc2ccc(/C=C/C(=O)c3ccccc3)cc2)c1 (repeat unit)
48 | 60.00 | *CCCCCCCCCCCOC(=O)c1cc(OCCCCCCCCOc2ccc(/N=N/c3ccc(OC)cc3)cc2)cc(C(=O)OCCCCCCCCCCCOc2ccc(-c3ccc(O*)cc3)cc2)c1 (repeat unit)
49 | 258.00 | *c1ccc(Oc2ccc(N3C(=O)c4ccc(Sc5ccc6c(c5)C(=O)N(*)C6=O)cc4C3=O)cc2)cc1 (repeat unit)
50 | 95.00 | */C=C/c1ccc2c3ccc(*)cc3n(-c3ccc(OCCCCCCCCCC)c(OCCCCCCCCCC)c3)c2c1 (repeat unit)
51 | 212.00 | *C(=O)Oc1ccc(OC(=O)c2ccc3c(c2)C(=O)N(c2ccc(Oc4ccc(N5C(=O)c6ccc(*)cc6C5=O)cc4)cc2)C3=O)c(-c2ccccc2)c1 (repeat unit)
52 | 76.00 | *C1C(=O)N(CCCCCCOc2ccc(-c3ccc(C#N)cc3)cc2)C(=O)C1* (repeat unit)
53 | 360.00 | *c1ccc2oc3ccc(S(*)(=O)=O)cc3c2c1 (repeat unit)
54 | 134.00 | *CC1CCC(COC(=O)Nc2ccc(Cc3ccc(NC(=O)O*)cc3)cc2)CC1 (repeat unit)
55 | 252.50 | *C(=O)c1cc(C(=O)c2ccc3c(c2)C(=O)N(c2ccc(Oc4ccc(N5C(=O)c6ccc(*)cc6C5=O)cc4)cc2)C3=O)cc(C(C)(C)C)c1 (repeat unit)
56 | 106.00 | *CCCCCCNC(=O)C(OC)C(OC)C(=O)N* (repeat unit)

Row | Compound | glass transition temperature [°C]
57 | *Oc1ccc(C(C)(C)c2ccc(OC(=O)OCCN(CCOC(*)=O)c3ccccc3)cc2)cc1 (repeat unit) | 70.00
58 | *Oc1ccc(C(=O)OCCN(CCOC(=O)c2ccc(OC3(F)C(*)(F)C(F)(F)C3(F)F)cc2)c2ccc(/C=C/C3=CC(=C(C#N)C#N)CC(C)(C)C3)cc2)cc1 (repeat unit) | 143.00
59 | *CC(CC)N(*)C(=O)CCCC (repeat unit) | 52.00
60 | */C(C)=C(/*)CCC (repeat unit) | 200.00
61 | */C(C)=C(/*)[Si](C)(C)C (repeat unit) | 75.00
62 | *CC(*)C(=O)OCF (repeat unit) | 15.00
63 | *Sc1ccc(P(=O)(c2ccccc2)c2ccc(Sc3ccc(-c4ccc(*)cc4)cc3)cc2)cc1 (repeat unit) | 232.00
64 | *CC(*)C(=O)Oc1ccccc1Cl (repeat unit) | 318.00
65 | *C/C=C/C(CC)S(*)(=O)=O (repeat unit) | 70.10
66 | *N1CCOC1(*)CC (repeat unit) | 55.00
67 | *CC(*)c1ccc(C)nc1 (repeat unit) | 136.00
68 | *CC(*)OCCOc1ccc(C=C(C#N)C#N)cc1 (repeat unit) | 38.00
